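All cell lines were grown in 96-well plates and treated with compound for 48 hours. TGI denotes the concentration required for complete inhibition of growth.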
What was measured:
Assay in all cases: DTP human tumour cell line panel, 48 h
SK-OV-3 ovarian = tested on: SK-OV-3 ovarian
EKVX NSCLC = tested on: EKVX NSCLC
NCI-H23 lung = tested on: NCI-H23 lung
ACHN renal = tested on: ACHN renal
CCRF-CEM leukemia = tested on: CCRF-CEM leukemia
UACC-62 melanoma = tested on: UACC-62 melanoma
NCI-H226 lung = tested on: NCI-H226 lung
SF-539 CNS = tested on: SF-539 CNS
DU-145 prostate = tested on: DU-145 prostate
HOP-62 NSCLC = tested on: HOP-62 NSCLC
SN12C renal = tested on: SN12C renal
HCC-2998 colon = tested on: HCC-2998 colon
M14 melanoma = tested on: M14 melanoma
LOX IMVI melanoma = tested on: LOX IMVI melanoma
RPMI-8226 leukemia = tested on: RPMI-8226 leukemia
KM12 colon = tested on: KM12 colon
SK-MEL-28 melanoma = tested on: SK-MEL-28 melanoma
BT-549 breast = tested on: BT-549 breast
IGROV1 ovarian = tested on: IGROV1 ovarian
MDA-N = tested on: MDA-N
OVCAR-3 ovarian = tested on: OVCAR-3 ovarian
A549 NSCLC = tested on: A549 NSCLC
K-562 leukemia = tested on: K-562 leukemia
NCI/ADR-RES ovarian = tested on: NCI/ADR-RES ovarian
SF-295 CNS = tested on: SF-295 CNS
SR leukemia = tested on: SR leukemia
PC-3 prostate = tested on: PC-3 prostate
OVCAR-8 ovarian = tested on: OVCAR-8 ovarian
TK-10 renal = tested on: TK-10 renal
HL-60(TB) leukemia = tested on: HL-60(TB) leukemia
SNB-19 CNS = tested on: SNB-19 CNS
HT29 colon = tested on: HT29 colon
SNB-78 CNS = tested on: SNB-78 CNS
OVCAR-5 ovarian = tested on: OVCAR-5 ovarian
SNB-75 CNS = tested on: SNB-75 CNS
SF-268 CNS = tested on: SF-268 CNS
DMS 273 small cell lung = tested on: DMS 273 small cell lung
HOP-92 NSCLC = tested on: HOP-92 NSCLC
NCI-H460 lung = tested on: NCI-H460 lung
HCT-15 colon = tested on: HCT-15 colon
786-0 renal = tested on: 786-0 renal
MALME-3M melanoma = tested on: MALME-3M melanoma
T-47D breast = tested on: T-47D breast
SK-MEL-5 melanoma = tested on: SK-MEL-5 melanoma
SK-MEL-2 melanoma = tested on: SK-MEL-2 melanoma
UACC-257 melanoma = tested on: UACC-257 melanoma
KM20L2 colon = tested on: KM20L2 colon
RXF-631 renal = tested on: RXF-631 renal
CAKI-1 renal = tested on: CAKI-1 renal
UO-31 renal = tested on: UO-31 renal
RXF 393 renal = tested on: RXF 393 renal
A498 renal = tested on: A498 renal
MDA-MB-231 breast = tested on: MDA-MB-231 breast
U251 CNS = tested on: U251 CNS
HS 578T breast = tested on: HS 578T breast
MDA-MB-435 = tested on: MDA-MB-435
HCT-116 colon = tested on: HCT-116 colon
M19-MEL melanoma = tested on: M19-MEL melanoma
COLO 205 colon = tested on: COLO 205 colon
SW-620 colon = tested on: SW-620 colon
MOLT-4 leukemia = tested on: MOLT-4 leukemia
LXFL 529 NSCLC = tested on: LXFL 529 NSCLC
DMS 114 small cell lung = tested on: DMS 114 small cell lung
NCI-H522 lung = tested on: NCI-H522 lung
DLD-1 colon = tested on: DLD-1 colon
OVCAR-4 ovarian = tested on: OVCAR-4 ovarian
MCF7 breast = tested on: MCF7 breast

SMILES: CC(C)(C)C1CCC2(CC1)CCN(CCCN1CCOCC1)CC2
- TGI (SK-OV-3 ovarian): > 100 µM
- TGI (EKVX NSCLC): > 100 µM
- TGI (NCI-H23 lung): > 100 µM
- TGI (ACHN renal): > 100 µM
- TGI (CCRF-CEM leukemia): > 100 µM
- TGI (UACC-62 melanoma): 25 µM
- TGI (NCI-H226 lung): > 100 µM
- TGI (SF-539 CNS): > 51.1 µM
- TGI (DU-145 prostate): > 100 µM
- TGI (HOP-62 NSCLC): > 57.8 µM
- TGI (SN12C renal): > 100 µM
- TGI (HCC-2998 colon): 35.4 µM
- TGI (M14 melanoma): 27.8 µM
- TGI (LOX IMVI melanoma): > 52.3 µM
- TGI (RPMI-8226 leukemia): 63.8 µM
- TGI (KM12 colon): > 100 µM
- TGI (SK-MEL-28 melanoma): 33.2 µM
- TGI (BT-549 breast): > 100 µM
- TGI (IGROV1 ovarian): > 100 µM
- TGI (MDA-N): 89.9 µM
- TGI (OVCAR-3 ovarian): > 100 µM
- TGI (A549 NSCLC): > 88.8 µM
- TGI (K-562 leukemia): 30.5 µM
- TGI (NCI/ADR-RES ovarian): > 100 µM
- TGI (SF-295 CNS): > 61.7 µM
- TGI (SR leukemia): > 100 µM
- TGI (PC-3 prostate): > 100 µM
- TGI (OVCAR-8 ovarian): > 100 µM
- TGI (TK-10 renal): > 100 µM
- TGI (HL-60(TB) leukemia): 41.8 µM
- TGI (SNB-19 CNS): > 100 µM
- TGI (HT29 colon): > 34.2 µM
- TGI (SNB-78 CNS): 91.9 µM
- TGI (OVCAR-5 ovarian): > 100 µM
- TGI (SNB-75 CNS): > 52.4 µM
- TGI (SF-268 CNS): > 100 µM
- TGI (DMS 273 small cell lung): 38.3 µM
- TGI (HOP-92 NSCLC): > 63.9 µM
- TGI (NCI-H460 lung): > 100 µM
- TGI (HCT-15 colon): > 57.9 µM
- TGI (786-0 renal): 51 µM
- TGI (MALME-3M melanoma): 39.4 µM
- TGI (T-47D breast): > 100 µM
- TGI (SK-MEL-5 melanoma): 21.4 µM
- TGI (SK-MEL-2 melanoma): 53.2 µM
- TGI (UACC-257 melanoma): 31.1 µM
- TGI (KM20L2 colon): 5.24 µM
- TGI (RXF-631 renal): 31 µM
- TGI (CAKI-1 renal): > 88 µM
- TGI (UO-31 renal): > 100 µM
- TGI (RXF 393 renal): > 82.3 µM
- TGI (A498 renal): > 57.4 µM
- TGI (MDA-MB-231 breast): > 100 µM
- TGI (U251 CNS): > 53.3 µM
- TGI (HS 578T breast): > 100 µM
- TGI (MDA-MB-435): > 100 µM
- TGI (HCT-116 colon): > 59.7 µM
- TGI (M19-MEL melanoma): 25.9 µM
- TGI (COLO 205 colon): 32.7 µM
- TGI (SW-620 colon): > 59.3 µM
- TGI (MOLT-4 leukemia): > 65.4 µM
- TGI (LXFL 529 NSCLC): 21.5 µM
- TGI (DMS 114 small cell lung): 33.9 µM
- TGI (NCI-H522 lung): > 71.3 µM
- TGI (DLD-1 colon): > 100 µM
- TGI (OVCAR-4 ovarian): > 100 µM
- TGI (MCF7 breast): > 100 µM
